The results in this text go back to ChEMBL document CHEMBL6071207, “In Vivo-Active Soluble Epoxide Hydrolase-Targeting PROTACs with Improved Potency and Stability” (ACS Med Chem Lett, 2024).

The structures appear in SMILES notation.

Data set [1] deals with T1, Bifunctional epoxide hydrolase 2 (Mus musculus, UniProt P34914).
T1 sequence (P34914 whole entry): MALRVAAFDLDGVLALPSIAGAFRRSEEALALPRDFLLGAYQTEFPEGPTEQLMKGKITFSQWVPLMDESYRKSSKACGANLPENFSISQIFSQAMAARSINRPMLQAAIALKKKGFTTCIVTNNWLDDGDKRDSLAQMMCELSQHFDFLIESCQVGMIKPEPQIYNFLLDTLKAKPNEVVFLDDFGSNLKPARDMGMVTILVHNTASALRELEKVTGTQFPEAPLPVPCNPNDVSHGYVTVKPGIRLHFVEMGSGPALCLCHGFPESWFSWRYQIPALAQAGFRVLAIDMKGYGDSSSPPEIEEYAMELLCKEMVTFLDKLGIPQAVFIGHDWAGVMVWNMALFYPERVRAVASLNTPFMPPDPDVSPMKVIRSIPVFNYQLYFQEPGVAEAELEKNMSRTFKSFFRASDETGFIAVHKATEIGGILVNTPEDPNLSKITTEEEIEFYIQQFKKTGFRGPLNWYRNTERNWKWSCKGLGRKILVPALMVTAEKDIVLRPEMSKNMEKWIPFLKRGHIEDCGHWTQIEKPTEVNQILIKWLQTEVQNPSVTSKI
Briefly: Inhibition of mouse recombinant sEH using fluorogenic substrate.

A short description of data set [2]: Chemical stability of compound in cell culture medium assessed as parent compound remaining measured for 24 hrs by LC-MS analysis. The settings on record: read-out: Stability. It counts as physicochemical.
The test system of the next data set is HepG2. As to the kind of experiment: Cytotoxicity against human HepG2 cells assessed as cell viability at 1 uM incubated for 24 hrs by MTT assay. The settings on record: HepG2, 24 h, read-out: Activity.

As for `O=C1CCC(N2Cc3cc(N4CCN(C(=O)CCCCCCCCNC(=O)c5ccc(O[C@H]6CC[C@H](NC(=O)Nc7ccc(OC(F)(F)F)cc7)CC6)cc5)CC4)ccc3C2=O)C(=O)N1` (stereo partly drawn), the IC50 – broadly, the concentration that inhibits the measured activity by half – in data set [1] was 2.8 nM. Further, the remaining at 24 h in data set [2] stood at 57%. Besides, in the data set with HepG2, the viability at 1 µM worked out at 46%.
